Test results published in patent publication US20040253257A1, “Biological compositions and methods for treatment of liver cancer” (priority 2003, published 2004).
Where two headings read alike, the source gives them in different places.

Tests used:
[1] = system: human liver cancer; assay: Swiss mouse model of human liver cancer, growth of tumors; details: 31st day from tumor inoculation; 30 days treatment; yeast 0.3 ml oral once per day, CTX 30 mg/kg iv once a week
From the text: The animals were generally anaesthetized. […] Afterwards, the opening was sutured and the mice were put back into the cage.
(§1) The mice injected with tumor cells were divided into 4 experimental groups of ten mice per group and one control group. The four experimental groups were triplicated (i.e., using a total of 120 mice in the experimental groups).
(§2) The mice received the biological compositions, untreated yeast cells, CTX or saline on the same day as the tumor cells were transplanted. The mice in group CK2 also started receiving saline on the same day as the other four groups. The biological compositions, untreated yeast cells and saline were administered orally by a feeding tube and the CTX by intravenous injection for 30 consecutive days.

[2] = system: human liver cancer; details: for Number of live animals remaining in the groups after 30 days of treatment: 30 mice per group
Procedure: (§3) The survival time of mice after tumor injection and treatment was studied.
The biological composition comprising […] of activated and conditioned yeast cells of the strain Saccharomyces cerevisiae Hansen strain AS2.503 was prepared by the methods described in Section 5.1 and subsections therein.
The animals were prepared in a similar manner as described in Section 6.1.
(§4) The mice injected with tumor cells were divided into 4 experimental groups of ten mice per group and one control group. The four experimental groups were triplicated (i.e., using a total of 120 mice in the experimental groups). In group 2AY, the mice received 0.3 ml of the biological composition once per day. In group 2NY, the mice received 0.3 ml of the untreated yeast cells once per day. In group 2CTX, the mice were injected intravenously with 30 mg of cyclophosphamide (CTX) per kg body weight once a week for four weeks. In group 2CK1, the mice received 0.3 ml of physiological saline once per day.
as §2, with “2CK2” for “CK2”, “days. The mice were observed over 6 months from the day of their inoculation and survival was recorded. The weight of the mice, the weight of the liver, and the weight of the tumor were determined by standard techniques.” for “days.”

[3] = system: Liver tumor H-22; assay: C3H mouse model of liver cancer (H-22), growth of tumors; details: 31st day from tumor inoculation; 30 days treatment; yeast 0.3 ml oral once per day, CTX 30 mg/kg iv per day
Procedure: (§5) The biological composition comprising 10^8 cells per ml of activated and conditioned yeast cells of the strain Saccharomyces cerevisiae Hansen strain AS2.503 was prepared by the methods described in Section 5.1 and subsections therein.
as §1, §2

[4] = system: Liver tumor H-22; details: for Number of live animals remaining in the groups after 30 days of treatment: 30 mice per group
Procedure: as §3, §5
The animals were prepared in a similar manner as described in Section 8.1.
as §4, with “per day.” for “once a week for four weeks.”
as §2, with “2CK2” for “CK2”, “days. The mice were observed over 6 months from the day of their inoculation and survival was recorded.” for “days.”

[5] = 0 month after cessation of treatment
[6] = 1 month after cessation of treatment
[7] = 2 months after cessation of treatment
[8] = 3 months after cessation of treatment
[9] = 4 months after cessation of treatment
[10] = 5 months after cessation of treatment
[11] = 6 months after cessation of treatment
[12] = from injection of tumor cells, 30 days treatment
[13] = mice that survived, observed over 6 months

O=P1(N(CCCl)CCCl)NCCCO1 (stereo not shown) [CTX, cyclophosphamide]
mean weight of liver and standard deviation [1]: 1,372 ± 8 mg | mean weight of mice and standard deviation [1]: 17 ± 0.9 g | mean weight of tumor nodules and standard deviation [1]: 249 ± 9 mg | Number of live animals remaining in the groups after 30 days of treatment [2, 5]: 30 | Number of live animals remaining in the groups after 30 days of treatment [2, 6]: 30 | Number of live animals remaining in the groups after 30 days of treatment [2, 7]: 27 | Number of live animals remaining in the groups after 30 days of treatment [2, 8]: 22 | Number of live animals remaining in the groups after 30 days of treatment [2, 9]: 19 | Number of live animals remaining in the groups after 30 days of treatment [2, 10]: 7 | Number of live animals remaining in the groups after 30 days of treatment [2, 11]: 0 | survival of mice bearing liver cancer cells [2, 12]: all died after four months | mean weight of liver and standard deviation [2, 13]: all animals dead | mean weight of mice and standard deviation [2, 13]: all animals dead | mean weight of tumor nodules and standard deviation [2, 13]: all animals dead | mean weight of liver and standard deviation [3]: 1,351 ± 9 mg | mean weight of mice and standard deviation [3]: 18.8 ± 0.7 g | mean weight of tumor nodules and standard deviation [3]: 253 ± 8 mg | Number of live animals remaining in the groups after 30 days of treatment [4, 5]: 30 | Number of live animals remaining in the groups after 30 days of treatment [4, 6]: 27 | Number of live animals remaining in the groups after 30 days of treatment [4, 7]: 24 | Number of live animals remaining in the groups after 30 days of treatment [4, 8]: 19 | Number of live animals remaining in the groups after 30 days of treatment [4, 9]: 11 | Number of live animals remaining in the groups after 30 days of treatment [4, 10]: 3 | Number of live animals remaining in the groups after 30 days of treatment [4, 11]: 0 | survival of mice bearing liver cancer cells [4, 12]: all died after four months | mean weight of liver and standard deviation [4, 13]: all animals dead | mean weight of mice and standard deviation [4, 13]: all animals dead | mean weight of tumor nodules and standard deviation [4, 13]: all animals dead
